From ChEMBL document CHEMBL5154882, “Discovery of 4-Hydroxyquinazoline Derivatives as Small Molecular BET/PARP1 Inhibitors That Induce Defective Homologous Recombination and Lead to Synthetic Lethality for Triple-Negative Breast Cancer Therapy” (J Med Chem, 2022)
The source made the active and inactive calls. The rule behind the calls is not given here.

Legend:
MDA-MB-468 [1] = experiment: Antiproliferative activity against human MDA-MB-468 cells assessed as reduction in cell viability incubated for 72 hrs by MTT assay; assay type: functional, cell-based; settings: MDA-MB-468, 72 h
[2] = target: T1, Bromodomain-containing protein 4 (Homo sapiens, UniProt O60885); experiment: Inhibition of BRD4 (unknown origin) at 1 uM relative to control
[3] = target: T2, Poly [ADP-ribose] polymerase 1 (Homo sapiens, UniProt P09874); experiment: Inhibition of PARP1 (unknown origin) at 1 uM relative to control
T2 sequence (P09874 whole entry): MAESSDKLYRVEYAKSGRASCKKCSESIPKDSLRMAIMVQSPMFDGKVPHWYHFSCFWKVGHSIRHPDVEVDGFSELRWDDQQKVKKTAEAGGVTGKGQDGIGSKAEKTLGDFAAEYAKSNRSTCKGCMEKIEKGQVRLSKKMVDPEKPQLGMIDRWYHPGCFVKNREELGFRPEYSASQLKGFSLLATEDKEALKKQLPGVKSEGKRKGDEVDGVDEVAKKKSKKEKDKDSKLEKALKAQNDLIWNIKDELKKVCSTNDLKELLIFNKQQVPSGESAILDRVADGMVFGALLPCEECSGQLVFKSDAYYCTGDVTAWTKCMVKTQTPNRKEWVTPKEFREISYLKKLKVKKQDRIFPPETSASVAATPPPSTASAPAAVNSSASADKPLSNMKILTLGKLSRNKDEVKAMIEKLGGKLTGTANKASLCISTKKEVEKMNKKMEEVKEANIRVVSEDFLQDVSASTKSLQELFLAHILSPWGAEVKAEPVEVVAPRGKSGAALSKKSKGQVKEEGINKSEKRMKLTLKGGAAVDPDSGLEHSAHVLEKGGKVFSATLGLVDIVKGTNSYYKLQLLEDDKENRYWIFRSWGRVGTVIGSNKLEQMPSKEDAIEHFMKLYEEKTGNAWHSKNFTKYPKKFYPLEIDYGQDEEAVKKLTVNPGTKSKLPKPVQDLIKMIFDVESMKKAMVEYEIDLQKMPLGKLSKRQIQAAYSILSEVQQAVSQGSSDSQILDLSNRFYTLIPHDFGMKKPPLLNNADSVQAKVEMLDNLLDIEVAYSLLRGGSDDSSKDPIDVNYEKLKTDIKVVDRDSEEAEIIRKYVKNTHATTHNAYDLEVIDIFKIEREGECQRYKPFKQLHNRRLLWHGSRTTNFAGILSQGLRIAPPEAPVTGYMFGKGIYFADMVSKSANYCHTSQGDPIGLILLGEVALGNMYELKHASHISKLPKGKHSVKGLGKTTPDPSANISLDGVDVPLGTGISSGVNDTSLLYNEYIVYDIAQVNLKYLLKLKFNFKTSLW

MDA-MB-468 [4] = experiment: Cell cycle arrest in human MDA-MB-468 cells assessed as accumulation at G0/G1 phase at 5 uM incubated for 72 hrs by propidium iodide staining-based flow cytometry analysis (reference value: 61.4%); assay type: functional
MDA-MB-468 [5] = experiment: Cell cycle arrest in human MDA-MB-468 cells assessed as accumulation at G0/G1 phase at 20 uM incubated for 72 hrs by propidium iodide staining-based flow cytometry analysis (reference value: 61.4%); assay type: functional
MDA-MB-468 [6] = experiment: Cell cycle arrest in human MDA-MB-468 cells assessed as accumulation at G2/M phase at 5 uM incubated for 72 hrs by propidium iodide staining-based flow cytometry analysis (reference value: 16.1%); assay type: functional
MDA-MB-468 [7] = experiment: Cell cycle arrest in human MDA-MB-468 cells assessed as accumulation at G2/M phase at 10 uM incubated for 72 hrs by propidium iodide staining-based flow cytometry analysis (reference value: 16.1%); assay type: functional
MDA-MB-468 [8] = experiment: Cell cycle arrest in human MDA-MB-468 cells assessed as accumulation at G2/M phase at 20 uM incubated for 72 hrs by propidium iodide staining-based flow cytometry analysis (reference value: 16.1%); assay type: functional
MDA-MB-468 [9] = experiment: Induction of apoptosis in human MDA-MB-468 cells assessed as early apoptotic cells at 5 uM incubated for 72 hrs by annexin V/propidium iodide staining-based flow cytometry analysis (reference value: 4.07%); assay type: functional
MDA-MB-468 [10] = experiment: Induction of apoptosis in human MDA-MB-468 cells assessed as early apoptotic cells at 10 uM incubated for 72 hrs by annexin V/propidium iodide staining-based flow cytometry analysis (reference value: 4.07%); assay type: functional
MDA-MB-468 [11] = experiment: Induction of apoptosis in human MDA-MB-468 cells assessed as early apoptotic cells at 20 uM incubated for 72 hrs by annexin V/propidium iodide staining-based flow cytometry analysis (reference value: 4.07%); assay type: functional
MDA-MB-468 [12] = experiment: Induction of apoptosis in human MDA-MB-468 cells assessed as late apoptotic cells at 5 uM incubated for 72 hrs by annexin V/propidium iodide staining-based flow cytometry analysis (reference value: 1.34%); assay type: functional
MDA-MB-468 [13] = experiment: Induction of apoptosis in human MDA-MB-468 cells assessed as downregulation of Bcl-2 protein level at 20 uM incubated for 72 hrs by Western blot analysis; assay type: functional, cell-based
MDA-MB-468 [14] = experiment: Induction of apoptosis in human MDA-MB-468 cells assessed as up-regulation of cleaved caspase 3 protein level at 20 uM incubated for 72 hrs by Western blot analysis; assay type: functional, cell-based
MDA-MB-468 [15] = experiment: Induction of DNA damage in human MDA-MB-468 cells assessed as up-regulation of gammaH2AX expression level at 5 to 20 uMby DAPI staining based immunofluorescence assay; assay type: functional, cell-based; settings: dose 5-20 µM
[16] = Half life in Sprague-Dawley rat at 1 mg/kg, iv; assay type: ADME, organism-based; settings: in vivo
[17] = Cmax in Sprague-Dawley rat at 1 mg/kg, iv; assay type: ADME, organism-based; set-up: dose 1 mg/kg, route iv; settings: in vivo
[18] = AUC (0 to t) in Sprague-Dawley rat at 1 mg/kg, iv; assay type: ADME, organism-based; set-up: dose 1 mg/kg, route iv; settings: in vivo
[19] = Apparent volume of distribution in Sprague-Dawley rat at 1 mg/kg, iv; assay type: ADME, organism-based; settings: in vivo
[20] = Half life in Sprague-Dawley rat at 10 mg/kg, po; assay type: ADME, organism-based; settings: in vivo
[21] = Cmax in Sprague-Dawley rat at 10 mg/kg, po; assay type: ADME, organism-based; set-up: dose 10 mg/kg, route po; settings: in vivo
[22] = AUC (0 to t) in Sprague-Dawley rat at 10 mg/kg, po; assay type: ADME, organism-based; set-up: dose 10 mg/kg, route po; settings: in vivo
[23] = AUC (0 to infinity) in Sprague-Dawley rat at 10 mg/kg, po; assay type: ADME, organism-based; set-up: time infinity, dose 10 mg/kg, route po; settings: in vivo
[24] = Oral bioavailability in Sprague-Dawley rat at 10 mg/kg; assay type: ADME, organism-based; settings: in vivo
MDA-MB-468 [25] = experiment: Antitumor activity against human MDA-MB-468 cells xenografted in BALB/c nude mouse model assessed as tumor growth inhibition at 40 to 80 mg/kg, ig administered daily for 16 days measured every 3 days relative to control; assay type: functional; settings: dose 40-80 mg/kg, time 16 day
[26] = Toxicity in BALB/c nude mouse xenografted with human MDA-MB-468 cells assessed as change in body weight at 40 to 80 mg/kg, ig administered daily for 16 days measured every 3 days; assay type: organism-based; settings: in vivo, po, 384 h, dose 40-80 mg/kg, time 16 day
[27] = Toxicity in BALB/c nude mouse xenografted with human MDA-MB-468 cells assessed as death at 40 to 80 mg/kg, ig administered daily for 16 days measured every 3 days; assay type: organism-based; settings: in vivo, po, 384 h, dose 40-80 mg/kg, time 16 day
[28] = Toxicity in BALB/c nude mouse xenografted with human MDA-MB-468 cells assessed as morphological changes in heart at 80 mg/kg, ig administered daily for 16 days measured every 3 days by hematoxyin-eosin staining based analysis; assay type: organism-based; settings: in vivo, po, 384 h, time 16 day
[29] = Toxicity in BALB/c nude mouse xenografted with human MDA-MB-468 cells assessed as morphological changes in lung at 40 to 80 mg/kg, ig administered daily for 16 days measured every 3 days by hematoxyin-eosin staining based analysis; assay type: organism-based; settings: in vivo, po, 384 h, dose 40-80 mg/kg, time 16 day
[30] = Toxicity in BALB/c nude mouse xenografted with human MDA-MB-468 cells assessed as morphological changes in kidney at 80 mg/kg, ig administered daily for 16 days measured every 3 days by hematoxyin-eosin staining based analysis; assay type: organism-based; settings: in vivo, po, 384 h, time 16 day
MDA-MB-231 [31] = experiment: Antitumor activity against human MDA-MB-231 cells xenografted in BALB/c nude mouse assessed as downregulation of […] downstream protein at 40 mg/kg by Western blot analysis; assay type: functional, organism-based
MDA-MB-231 [32] = experiment: Antitumor activity against human MDA-MB-231 cells xenografted in BALB/c nude mouse assessed as downregulation of c-Myc at 80 mg/kg by Western blot analysis; assay type: functional, organism-based
MDA-MB-231 [33] = experiment: Antitumor activity against human MDA-MB-231 cells xenografted in BALB/c nude mouse assessed as downregulation of Rad51 at 80 mg/kg by Western blot analysis; assay type: functional, organism-based
[34] = target: T1, Bromodomain-containing protein 4; experiment: Inhibition of BRD4 BD1 (unknown origin)
[35] = target: T1, Bromodomain-containing protein 4; experiment: Binding affinity to BRD4 in human MDA-MB-468 cells assessed as increase in thermal stability at 5 uM by cellular thermal shift assay; assay type: cell-based
MDA-MB-468 [36] = experiment: Downregulation of PARP1 expression level in human MDA-MB-468 cells by Western blot analysis; assay type: functional, cell-based; settings: dose 5-20 µM, DDE = dose-dependent effect
MDA-MB-231 [37] = experiment: Inhibition of homologous recombinant repair in human MDA-MB-231 cells assessed as down-regulation of Mre11 expression at 5 to 20 uM in by Western blot analysis; assay type: functional, cell-based; settings: dose 5-20 µM
[38] = target: T2, Poly [ADP-ribose] polymerase 1

In the case of `COc1cc(OC)c2c(=O)[nH]c(-c3cccc(Cc4n[nH]c(=O)c5ccccc45)c3)nc2c1`, the IC50 (MDA-MB-468 [1]) is reported as 3010 nM, the inhibition [2] is reported as 76.2% and the inhibition [3] is reported as 79.2%. For the same compound, the Activity (MDA-MB-468 [4]) was 62.3%, the Activity (MDA-MB-468 [5]) was 74.3% and the Activity (MDA-MB-468 [6]) was 16.6%. The Activity (MDA-MB-468 [7]) was 14.5%, the Activity (MDA-MB-468 [8]) was 14% and the Activity (MDA-MB-468 [9]) was 21.47%. The Activity (MDA-MB-468 [10]) was 25.61%, the Activity (MDA-MB-468 [11]) was 28.26% and the Activity (MDA-MB-468 [12]) was 6.08%. The Activity (MDA-MB-468 [13]) was “Active”, the Activity (MDA-MB-468 [14]) was “Active” and the Activity (MDA-MB-468 [15]) was “Active”. It also gave a t1/2 [16] of 3.02 h, a Cmax [17] of 258 ng/mL and an AUC(0-t) [18] of 629 ng·h/mL. For the same compound, the Vz [19] was 21.1 L/kg, the half-life [20] was 3.33 h and the Cmax [21] was 242 ng/mL. The AUC(0-t) [22] was 1490 ng·h/mL, the AUC(0-inf) [23] was 1530 ng·h/mL and the bioavailability [24] was 23.8%. For the same compound, the TGI (MDA-MB-468 [25]) was 68.7%, the Activity [26] was “Non-Toxic” and the Activity [27] was “Non-Toxic”. For the same compound, the Activity [28] was “Non-Toxic”, the Activity [29] was “Non-Toxic” and the Activity [30] was “Non-Toxic”. The Activity (MDA-MB-231 [31]) was “Active”, the Activity (MDA-MB-231 [32]) was “Active” and the Activity (MDA-MB-231 [33]) was “Active”. For the same compound, the IC50 [34] was 251 nM, the Activity [35] was “Active” and the Activity (MDA-MB-468 [36]) was “Dde”. The Activity (MDA-MB-231 [37]) was “Active” and the IC50 [38] was 197 nM.
